From patent publication US20240415819A1, “MACROCYCLIC COMPOUNDS AS PROTEASOME SUBUNIT BETA TYPE-5 INHIBITORS” (Lead Discovery Center GmbH, priority 2021, published 2024)

How the values were obtained:
[1] = target: T1, β5 subunit of the human constitutive proteasome (CPS) (Homo sapiens, UniProt P28074); assay: β5 inhibition assay, human constitutive proteasome (Suc-LLVY-AMC); format: biochemical; details: IC50 class, Suc-LLVY-AMC substrate
T1 construct: purchased Boston Biochem E-360
Experimental: The enzymatic activity of the β5 subunit of the human constitutive proteasome (CPS) is analyzed. In another assay, which differs from the assay of the human constitutive proteasome only in using the human immunoproteasome (IPS) the enzymatic activity of the β5 subunit of the human immunoproteasome (IPS) is analyzed. […] Inhibition is indicated as IC50 [nM] (“-”=not measured).

hPMBC = assay: Chymotrypsin-like ProteasomeGlo assay in hPBMC; format: cell-based; details: Homo sapiens; read-out: Pglo hPBMC
Text: Chymotrypsin-like ProteasomeGlo assay in the B-cells isolated from PBMC's following compound addition (IC50). • 1. PBMC's will be isolated from human blood followed by B-cell isolation from the PBMC's using the Miltenyi Isolation Kit. • 2. This experiment will use the Chymotrypsin-like ProteasomeGlo read-out to generate IC50's following compound treatment. • 3. Dilute all compounds 1:100 for the assay. • 4. […] Repeat the DMSO transfer with lane 12. • 5. Lane 12 should not be seeded with any cells. Only medium! • 6. For all steps, make sure the samples and reagents remain cool! • 7. While dealing with the buffy coats, be careful to not let any exposed skin to be in direct contact with the blood.
For the initial steps and to make processing the buffy coats easier, separately process the buffy coats. • a. Cut the tube attached to the buffy coats carefully using a clean, sterile and fresh scalpel. • b. Transfer the blood into 2 individual 50 ml falcons. • c. Add an equal volume of DPBS to the blood in the falcons. • d. Add ˜20 ml of lymphocyte separating medium to two 50 ml falcons. • e. Carefully pour 15-20 ml of the blood+DPBS mix from step c. onto the lymphocyte separating medium from step d. • f. Centrifuge the falcons with the lymphocyte separating medium+blood mix at 800×g for 15 minutes using a swing-out rotor. • g. Following centrifugation, carefully remove the falcons from the centrifuge. • h. The following layers will be observed: • i. Aspirate the plasma layer off carefully without disturbing the different layers. • j. Remove the cell pellet using a pipette into two fresh 50 ml falcons. • k. Fill the falcons with the cells up to 50 ml with DPBS. • l. Centrifuge the falcons at 250×g for 10 minutes using a swing-out rotor (Brake-off). • m. Aspirate the complete DPBS off the cells without disturbing the cell pellet at the bottom of the falcon. • n. Re-suspend the cell pellet in 10 ml of 1×RBC lysis buffer. • o. Incubate the falcons at room temperature in the dark for 10 minutes. • p. After RBC lysis, centrifuge the tubes at 250×g for 10 minutes using a swing-out rotor (brake-off). • (*Note: If the cell pellet is still red or light red, repeat steps n. to p.!) • q. Re-suspend the cell pellet in DPBS up to 50 ml in the falcon. • r. Centrifuge the falcons at 250×g for 10 minutes using a swing-out rotor (Brake-off). • s. Aspirate the DPBS off the cells without disturbing the cell pellet at the bottom of the falcon. • t. Repeat the wash step as described in steps q. to s. 2× times more (total number of washes is 3×). • u. Aspirate the DPBS completely off the cell pellet after the last wash without disturbing the cell pellet. • v. Re-suspend the cell pellet in 20 ml of PBMC cell medium. • w.
• a. Remove the plates with cells from the incubator. • b. Take all the plates including the compound plate, intermediate plate and Staurosporine plate to the ECHO. • c. Click on “Open” in the ECHO software and select the protocol “QLI5_25ul_30 uM-Grenier”. • d. Follow the on-screen prompts and instructions once you click “Start” to insert the compound plate, intermediate plate and destination plates. • e. Change the final number of destination plates on the program. • f. Follow the on-screen prompts and instructions once you click “Start” to load the Staurosporine and destination plates. • g. Once all the compounds, DMSO and Staurosporine have been transferred, place the destination plates in a wet tissue box. • h. Place the destination plates back into the incubator and incubate at 37° C., 5% CO2 for 105 minutes. • i. Re-seal all the compound+Stauro diamond and intermediate plates and store in the dark. Chymotrypsin like ProteasomeGlo Assay • 1. Thaw the components of the ProteasomeGlo assay at room temperature including the ProteasomeGlo Buffer, the lyophilized Luciferin Detection Reagent and the Suc-LLVY-Glo Substrate. • 2. […]

## Cc1ccc2cc1CNC(=O)[C@H](CCc1ccccc1)NC(=O)[C@@H](NC(=O)Cc1cnc(N)s1)CC(=O)N1CCCC(CCO2)C1 (stereo partly drawn) [Compound 311, 2-(2-aminothiazol-5-yl)-N-((9S,12S)-5^4-methyl-8,11,14-trioxo-9-phenethyl-4-oxa-7,10-diaza-1(3,1)-piperidina-5(1,3)-benzenacyclotetradecaphane-12-yl)acetamide]
[1]
  IC50: < 100 nM
hPMBC
  IC50: < 100 nM

## Cc1ccc2cc1CNC(=O)[C@H](CCc1ccccc1)NC(=O)[C@@H](NC(=O)OCc1ccccc1)CC(=O)N1CC(CCO2)CC2CCCCC21 (stereo partly drawn) [Compound 314, benzyl ((9S,12S)-5^4-methyl-8,11,14-trioxo-9-phenethyl-11,12,13,14,14a,15,16,17,18,18a-decahydro-4-oxa-7,10-diaza-1(3,1)-quinolina-5(1,3)-benzenacyclotetradecaphane-12-yl)carbamate]
[1]
  IC50: < 100 nM
hPMBC
  IC50: < 100 nM

## Cc1ccc2cc1CNC(=O)[C@H](CCc1ccccc1)NC(=O)[C@@H](NC(=O)Cc1cc(Cl)c(N)c(Cl)c1)CC(=O)N1CCCC(CCO2)C1 (stereo partly drawn) [Compound 320, 2-(4-amino-3,5-dichlorophenyl)-N-((9S,12S)-5^4-methyl-8,11,14-trioxo-9-phenethyl-4-oxa-7,10-diaza-1(3,1)-piperidina-5(1,3)-benzenacyclotetradecaphane-12-yl)acetamide]
[1]
  IC50: < 100 nM
hPMBC
  IC50: < 100 nM

## Cc1ccc2cc1CNC(=O)[C@H](CCc1ccccc1)NC(=O)[C@@H](NC(=O)OCc1ccccc1)CCCC(=O)NCCCCO2 [Compound 322, benzyl ((12S,15S)-1^4-methyl-8,13, 16-trioxo-15-phenethyl-2-oxa-7,14,17-triaza-1(1,3)-benzenacyclooctadecaphane-12-yl)carbamate]
[1]
  IC50: < 100 nM
hPMBC
  IC50: 500 to 1000 nM

## COC(C(=O)N[C@H]1CC(=O)N2CCCC(CCOc3ccc(C)c(c3)CNC(=O)[C@H](CCc3ccccc3)NC1=O)C2)c1ccc(N)cc1 (stereo partly drawn) [Compound 326, 2-(4-aminophenyl)-2-methoxy-N-((9S,12S)-5^4-methyl-8,11,14-trioxo-9-phenethyl-4-oxa-7,10-diaza-1(3,1)-piperidina-5(1,3)-benzenacyclotetradecaphane-12-yl)acetamide]
[1]
  IC50: < 100 nM
hPMBC
  IC50: < 100 nM

## Cc1ccc2cc1CNC(=O)[C@H](CCc1ccccc1)NC(=O)[C@@H](NC(=O)Cc1nc(-c3ccncc3)n[nH]1)CC(=O)N1CCCC(CCO2)C1 (stereo partly drawn) [Compound 329, N-((9S,12S)-5^4-methyl-8,11,14-trioxo-9-phenethyl-4-oxa-7,10-diaza-1(3,1)-piperidina-5(1,3)-benzenacyclotetradecaphane-12-yl)-2-(3-(pyridin-4-yl)-1H-1,2,4-triazol-5-yl)acetamide]
[1]
  IC50: < 100 nM
hPMBC
  IC50: 100 to 500 nM

## Cc1n[nH]c(CC(=O)N[C@H]2CC(=O)N3CCCC(CCOc4ccc(C)c(c4)CNC(=O)[C@H](CCc4ccccc4)NC2=O)C3)n1 (stereo partly drawn) [Compound 332, 2-(3-methyl-1H-1,2,4-triazol-5-yl)-N-((9S,12S)-5^4-methyl-8,11,14-trioxo-9-phenethyl-4-oxa-7,10-diaza-1(3,1)-piperidina-5(1,3)-benzenacyclotetradecaphane-12-yl)acetamide]
[1]
  IC50: < 100 nM
hPMBC
  IC50: < 100 nM

## Cc1ccc2cc1CNC(=O)[C@H](CCc1ccccc1)NC(=O)[C@@H](NC(=O)Cc1ccccc1F)CC(=O)N1CCCC(CCO2)C1 (stereo partly drawn) [Compound 333, 2-(2-fluorophenyl)-N-((9S,12S)-5^4-methyl-8,11,14-trioxo-9-phenethyl-4-oxa-7,10-diaza-1(3,1)-piperidina-5(1,3)-benzenacyclotetradecaphane-12-yl)acetamide]
[1]
  IC50: < 100 nM
hPMBC
  IC50: < 100 nM

## Cc1ccc2cc1CNC(=O)[C@H](CCc1ccccc1)NC(=O)[C@@H](NC(=O)CC1=NN(c3ccccc3)C(=O)C1)CC(=O)N1CCCC(CCO2)C1 (stereo partly drawn) [Compound 334, N-((9S,12S)-5^4-methyl-8,11,14-trioxo-9-phenethyl-4-oxa-7,10-diaza-1(3,1)-piperidina-5(1,3)-benzenacyclotetradecaphane-12-yl)-2-(5-oxo-1-phenyl-4,5-dihydro-1H-pyrazol-3-yl)acetamide]
[1]
  IC50: < 100 nM
hPMBC
  IC50: 100 to 500 nM

## Cc1ccc2cc1CNC(=O)[C@H](CCc1ccccc1)NC(=O)[C@@H](NC(=O)Cc1cc(O)on1)CC(=O)N1CCCC(CCO2)C1 (stereo partly drawn) [Compound 335, 2-(5-hydroxyisoxazol-3-yl)-N-((9S,12S)-5^4-methyl-8,11,14-trioxo-9-phenethyl-4-oxa-7,10-diaza-1(3,1)-piperidina-5(1,3)-benzenacyclotetradecaphane-12-yl)acetamide]
[1]
  IC50: < 100 nM
hPMBC
  IC50: < 100 nM

## Cc1ccc2cc1CNC(=O)C(CCc1ccncc1)NC(=O)[C@@H](NC(=O)OCc1ccccc1)CC(=O)N1CCCC(CCO2)C1 (stereo partly drawn) [Compound 336, benzyl ((12S)-5^4-methyl-8,11,14-trioxo-9-(2-(pyridin-4-yl)ethyl)-4-oxa-7,10-diaza-1(3,1)-piperidina-5(1,3)-benzenacyclotetradecaphane-12-yl)carbamate]
[1]
  IC50: < 100 nM
hPMBC
  IC50: < 100 nM

## Cc1ccc2cc1CNC(=O)[C@H](CCc1ccccc1)NC(=O)[C@@H](NC(=O)OCc1ccccc1)CC(=O)N1CC(C)CC(CCO2)C1 (stereo partly drawn) [Compound 337, benzyl ((9S,12S)-1^5,5^4-dimethyl-8,11,14-trioxo-9-phenethyl-4-oxa-7,10-diaza-1(3,1)-piperidina-5(1,3)-benzenacyclotetradecaphane-12-yl)carbamate]
[1]
  IC50: < 100 nM
hPMBC
  IC50: < 100 nM

## CC(=O)N[C@H]1CC(=O)N2CCCC(CCOc3ccc(C)c(c3)CNC(=O)C(CCC3CCN(C(C)=O)CC3)NC1=O)C2 (stereo partly drawn) [Compound 338, N-((12S)-9-(2-(1-acetylpiperidin-4-yl)ethyl)-5^4-methyl-8,11,14-trioxo-4-oxa-7,10-diaza-1(3,1)-piperidina-5(1,3)-benzenacyclotetradecaphane-12-yl)acetamide]
[1]
  IC50: < 100 nM
hPMBC
  IC50: < 100 nM

## Cc1ccc2cc1CNC(=O)[C@H](CCc1ccccc1)NC(=O)[C@@H](NC(=O)c1ccc3cc(N)ccc3c1)CC(=O)N1CCCC(CCO2)C1 (stereo partly drawn) [Compound 339, 6-amino-N-((9S,12S)-5^4-methyl-8,11,14-trioxo-9-phenethyl-4-oxa-7,10-diaza-1(3,1)-piperidina-5(1,3)-benzenacyclotetradecaphane-12-yl)-2-naphthamide]
[1]
  IC50: < 100 nM
hPMBC
  IC50: 100 to 500 nM

## Cc1ccc2cc1CNC(=O)[C@H](CCc1ccccc1)NC(=O)[C@@H](NC(=O)Cc1nnc(N)[nH]1)CC(=O)N1CCCC(CCO2)C1 (stereo partly drawn) [Compound 340, 2-(5-amino-1H-1,2,4-triazol-3-yl)-N-((9S,12S)-5^4-methyl-8,11,14-trioxo-9-phenethyl-4-oxa-7,10-diaza-1(3,1)-piperidina-5(1,3)-benzenacyclotetradecaphane-12-yl)acetamide]
[1]
  IC50: < 100 nM
hPMBC
  IC50: < 100 nM

## CC(=O)c1ccc(CC(=O)N[C@H]2CC(=O)N3CCCC(CCOc4ccc(C)c(c4)CNC(=O)[C@H](CCc4ccccc4)NC2=O)C3)cc1 (stereo partly drawn) [Compound 341, 2-(4-acetylphenyl)-N-((9S,12S)-54-methyl-8,11,14-trioxo-9-phenethyl-4-oxa-7,10-diaza-1(3,1)-piperidina-5(1,3)-benzenacyclotetradecaphane-12-yl)acetamide]
[1]
  IC50: < 100 nM
hPMBC
  IC50: < 100 nM
